Values after ≈ are worked out from the molar mass of the structure shown. Active and inactive are the calls of the source. The rule behind the calls is not given here.
Columns and labels:
HL-60 = assay: Antiproliferative activity against human […] assessed as cell growth inhibition measured for 72 hrs by MTT assay; type: functional, cell-based; settings: HL-60, 72 h
[1] = biological target: Menin/Histone-lysine N-methyltransferase MLL (Homo sapiens, UniProt O00255); assay: Inhibition of Menin/fluorescein labeled MLL(4 to 43 residues) (unknown origin) protein protein interaction incubated for 1 hr by fluorescence polarization-based competitive binding assay
MV4-11 [2] = assay: Antiproliferative activity against human MV4-11 cells harboring MLL-AF4 assessed as cell growth inhibition measured for 72 hrs by MTT assay; type: functional, cell-based; settings: MV4-11, 72 h
[3] = Solubility of compound in phosphate buffer at pH 7.4 by spectrophotometric analysis; type: physicochemical
MV4-11 [4] = assay: Induction of cell differentiation in human MV4-11 cells assessed as increase in CD11b expression at 10 uM measured after 7 days by flow cytometric analysis; type: functional, cell-based; settings: time 7.0 day
MV4-11 [5] = assay: Reversible differentiation arrest in human MV4-11 cells at 0.1 to 10 uM measured after 7 days by flow cytometric analysis; type: functional, cell-based; settings: dose 0.1-10 µM, time 7.0 day
MV4-11 [6] = assay: Antiproliferative activity against human MV4-11 cells assessed as reduction in cell viability measured for 3 days by cell counting assay; type: functional, cell-based; settings: MV4-11, 72 h
MV4-11 [7] = assay: Induction of apoptosis in human MV4-11 cells incubated for 24 hrs by annexinV/PI staining based flow cytometry analysis; type: functional, cell-based; settings: dose 0.1-10 µM, DDE = dose-dependent effect
MV4-11 [8] = assay: Antiproliferative activity against human MV4-11 cells assessed as reduction in cell viability measured for 3 days followed by replacement with fresh medium of compound and measured after 72 hrs by cell counting assay; type: functional, cell-based; settings: MV4-11, 72 h

Sequence of Menin/Histone-lysine N-methyltransferase MLL (O00255 whole entry, the tested form may be a part): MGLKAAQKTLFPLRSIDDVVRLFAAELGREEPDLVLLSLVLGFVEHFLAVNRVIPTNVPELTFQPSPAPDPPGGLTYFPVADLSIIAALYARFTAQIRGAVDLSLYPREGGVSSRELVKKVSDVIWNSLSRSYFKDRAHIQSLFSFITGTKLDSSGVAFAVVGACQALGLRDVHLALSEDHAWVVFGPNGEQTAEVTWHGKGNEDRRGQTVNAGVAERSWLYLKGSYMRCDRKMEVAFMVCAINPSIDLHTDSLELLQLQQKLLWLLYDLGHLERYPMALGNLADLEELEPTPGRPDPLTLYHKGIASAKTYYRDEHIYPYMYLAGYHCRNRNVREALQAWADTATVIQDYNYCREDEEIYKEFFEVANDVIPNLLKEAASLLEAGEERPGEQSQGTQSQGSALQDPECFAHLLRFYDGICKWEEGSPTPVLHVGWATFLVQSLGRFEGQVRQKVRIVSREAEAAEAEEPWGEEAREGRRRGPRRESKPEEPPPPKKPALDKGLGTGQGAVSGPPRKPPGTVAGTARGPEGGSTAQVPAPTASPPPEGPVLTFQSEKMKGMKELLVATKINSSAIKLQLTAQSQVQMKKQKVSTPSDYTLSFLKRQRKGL
Sequence of Menin/Histone-lysine N-methyltransferase MLL (Q03164 1-2718 partner limits assumed): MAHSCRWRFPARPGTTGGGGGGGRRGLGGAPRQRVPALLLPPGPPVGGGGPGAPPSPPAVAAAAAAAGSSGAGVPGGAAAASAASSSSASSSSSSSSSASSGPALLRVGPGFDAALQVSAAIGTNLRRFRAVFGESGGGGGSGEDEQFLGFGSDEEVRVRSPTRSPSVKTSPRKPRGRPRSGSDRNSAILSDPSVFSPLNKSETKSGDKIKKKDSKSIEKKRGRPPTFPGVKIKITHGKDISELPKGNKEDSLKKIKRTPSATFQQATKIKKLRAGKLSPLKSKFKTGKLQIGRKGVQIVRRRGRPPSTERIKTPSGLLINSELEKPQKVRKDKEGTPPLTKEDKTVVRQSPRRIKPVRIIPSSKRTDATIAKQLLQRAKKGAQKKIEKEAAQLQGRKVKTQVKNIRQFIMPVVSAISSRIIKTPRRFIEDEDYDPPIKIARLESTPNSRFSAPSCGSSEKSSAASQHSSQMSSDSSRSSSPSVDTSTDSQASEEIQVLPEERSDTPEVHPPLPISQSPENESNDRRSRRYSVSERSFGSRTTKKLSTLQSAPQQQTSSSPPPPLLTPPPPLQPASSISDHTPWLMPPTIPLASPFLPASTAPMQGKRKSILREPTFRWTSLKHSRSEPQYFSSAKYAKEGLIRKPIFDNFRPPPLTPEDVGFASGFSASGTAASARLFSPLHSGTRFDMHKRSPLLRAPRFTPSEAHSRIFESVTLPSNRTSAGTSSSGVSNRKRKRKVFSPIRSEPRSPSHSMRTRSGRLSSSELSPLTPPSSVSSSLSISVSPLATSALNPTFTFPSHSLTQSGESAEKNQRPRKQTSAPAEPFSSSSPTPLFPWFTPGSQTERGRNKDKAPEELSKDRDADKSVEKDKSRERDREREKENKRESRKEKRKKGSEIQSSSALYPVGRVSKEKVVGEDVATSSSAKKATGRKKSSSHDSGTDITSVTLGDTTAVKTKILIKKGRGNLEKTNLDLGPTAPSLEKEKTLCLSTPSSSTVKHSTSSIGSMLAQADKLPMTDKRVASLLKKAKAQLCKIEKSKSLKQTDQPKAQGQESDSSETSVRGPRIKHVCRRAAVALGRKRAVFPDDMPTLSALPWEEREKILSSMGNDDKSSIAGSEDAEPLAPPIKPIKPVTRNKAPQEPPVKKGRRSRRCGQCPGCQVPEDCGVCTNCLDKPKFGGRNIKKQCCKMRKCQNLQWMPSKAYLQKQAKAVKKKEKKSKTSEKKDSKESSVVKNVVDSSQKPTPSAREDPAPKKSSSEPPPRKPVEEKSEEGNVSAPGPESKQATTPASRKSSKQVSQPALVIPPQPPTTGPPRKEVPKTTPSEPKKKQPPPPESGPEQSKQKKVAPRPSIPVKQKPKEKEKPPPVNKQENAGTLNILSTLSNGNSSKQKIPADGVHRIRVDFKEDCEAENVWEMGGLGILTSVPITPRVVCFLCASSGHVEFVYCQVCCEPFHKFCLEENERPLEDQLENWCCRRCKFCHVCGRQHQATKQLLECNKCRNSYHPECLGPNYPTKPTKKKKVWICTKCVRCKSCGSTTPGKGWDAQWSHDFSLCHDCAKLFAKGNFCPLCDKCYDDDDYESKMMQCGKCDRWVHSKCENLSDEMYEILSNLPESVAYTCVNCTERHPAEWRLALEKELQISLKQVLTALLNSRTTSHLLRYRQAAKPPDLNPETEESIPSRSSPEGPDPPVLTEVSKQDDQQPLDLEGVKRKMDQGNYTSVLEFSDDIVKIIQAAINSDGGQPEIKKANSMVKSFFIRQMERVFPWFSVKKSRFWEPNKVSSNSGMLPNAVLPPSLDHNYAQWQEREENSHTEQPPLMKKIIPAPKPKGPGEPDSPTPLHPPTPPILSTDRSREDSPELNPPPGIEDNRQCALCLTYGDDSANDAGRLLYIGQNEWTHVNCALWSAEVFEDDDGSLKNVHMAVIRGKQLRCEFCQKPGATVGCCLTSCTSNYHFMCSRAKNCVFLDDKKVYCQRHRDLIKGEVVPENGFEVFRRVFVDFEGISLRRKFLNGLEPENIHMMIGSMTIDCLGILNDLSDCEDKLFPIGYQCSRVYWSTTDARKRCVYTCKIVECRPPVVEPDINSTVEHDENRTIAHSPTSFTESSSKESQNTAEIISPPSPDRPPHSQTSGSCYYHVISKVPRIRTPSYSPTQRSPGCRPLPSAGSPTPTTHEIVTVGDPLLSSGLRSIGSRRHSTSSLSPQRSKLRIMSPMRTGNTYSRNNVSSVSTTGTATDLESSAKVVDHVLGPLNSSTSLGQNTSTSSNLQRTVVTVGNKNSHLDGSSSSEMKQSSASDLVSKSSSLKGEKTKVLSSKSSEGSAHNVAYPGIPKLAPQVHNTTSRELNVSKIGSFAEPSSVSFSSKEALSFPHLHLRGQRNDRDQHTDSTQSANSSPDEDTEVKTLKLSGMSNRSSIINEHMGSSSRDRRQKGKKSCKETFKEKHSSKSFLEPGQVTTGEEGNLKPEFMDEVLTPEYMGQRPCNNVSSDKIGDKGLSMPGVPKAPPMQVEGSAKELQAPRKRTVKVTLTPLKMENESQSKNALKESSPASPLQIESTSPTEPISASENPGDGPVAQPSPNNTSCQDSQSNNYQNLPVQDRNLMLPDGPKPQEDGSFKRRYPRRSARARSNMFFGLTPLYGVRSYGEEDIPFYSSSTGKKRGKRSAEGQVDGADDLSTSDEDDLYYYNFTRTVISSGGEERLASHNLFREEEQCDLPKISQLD
Sequence of Menin/Histone-lysine N-methyltransferase MLL (Q03164 2719-3969 partner limits assumed): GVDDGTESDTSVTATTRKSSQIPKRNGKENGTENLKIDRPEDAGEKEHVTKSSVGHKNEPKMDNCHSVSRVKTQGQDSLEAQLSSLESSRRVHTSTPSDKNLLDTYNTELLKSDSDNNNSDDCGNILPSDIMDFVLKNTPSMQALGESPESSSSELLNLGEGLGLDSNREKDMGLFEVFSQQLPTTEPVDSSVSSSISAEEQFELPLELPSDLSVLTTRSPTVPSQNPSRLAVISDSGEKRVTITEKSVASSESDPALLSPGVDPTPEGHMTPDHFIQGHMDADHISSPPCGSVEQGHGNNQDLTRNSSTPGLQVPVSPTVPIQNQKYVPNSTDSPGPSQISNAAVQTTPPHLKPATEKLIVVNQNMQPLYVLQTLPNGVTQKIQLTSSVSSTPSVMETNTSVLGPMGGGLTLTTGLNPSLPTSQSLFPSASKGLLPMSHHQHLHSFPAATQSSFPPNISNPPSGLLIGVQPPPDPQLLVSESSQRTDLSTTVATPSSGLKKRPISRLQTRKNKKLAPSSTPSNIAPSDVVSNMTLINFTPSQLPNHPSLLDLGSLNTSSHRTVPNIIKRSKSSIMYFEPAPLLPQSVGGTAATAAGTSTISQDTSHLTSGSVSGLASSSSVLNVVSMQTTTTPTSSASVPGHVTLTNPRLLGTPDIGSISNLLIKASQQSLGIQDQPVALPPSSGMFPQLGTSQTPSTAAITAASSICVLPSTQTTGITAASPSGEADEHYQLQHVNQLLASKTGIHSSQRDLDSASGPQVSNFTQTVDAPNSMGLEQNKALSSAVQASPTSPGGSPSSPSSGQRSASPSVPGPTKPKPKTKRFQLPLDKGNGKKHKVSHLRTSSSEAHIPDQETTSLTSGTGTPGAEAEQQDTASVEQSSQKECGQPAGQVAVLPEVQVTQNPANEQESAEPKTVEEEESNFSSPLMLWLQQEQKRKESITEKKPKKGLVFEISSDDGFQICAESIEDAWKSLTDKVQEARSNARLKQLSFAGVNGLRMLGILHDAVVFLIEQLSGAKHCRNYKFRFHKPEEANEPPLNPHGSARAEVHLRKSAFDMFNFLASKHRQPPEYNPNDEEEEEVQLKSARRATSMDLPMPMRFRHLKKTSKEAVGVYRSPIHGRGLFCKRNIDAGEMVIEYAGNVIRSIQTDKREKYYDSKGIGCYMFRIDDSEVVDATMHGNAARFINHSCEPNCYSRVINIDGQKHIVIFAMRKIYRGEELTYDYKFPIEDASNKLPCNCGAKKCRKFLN

SMILES | IC50 (HL-60) [µM] | IC50 [1] [µM] | IC50 (MV4-11 [2]) [µM] | solubility [3] [µg/mL] | Activity (MV4-11 [4]) | Activity (MV4-11 [5]) | IC50 (MV4-11 [6]) [µM] | Activity (MV4-11 [7]) | IC50 (MV4-11 [8]) [µM]
N#Cc1ccc(N2CC(CN3CCC(Nc4ncnc5cnc(N6CCOCC6)cc45)CC3)C2)cc1 | > 10 | > 10 | > 10 |  |  |  |  |  | 
CN(C)CCOc1ccc2ncnc(NC3CCN(CC4CN(c5ccc(C#N)cc5)C4)CC3)c2n1 | > 10 | 0.06 | 1.5 | 314 (≈ 645 µM) |  |  |  |  | 
CN(C)CCN(C)c1ccc2ncnc(NC3CCN(CC4CN(c5ccc(C#N)cc5)C4)CC3)c2n1 | > 10 | 0.26 | 3.2 |  |  |  |  |  | 
CN(C)CCOc1ccc2ncnc(NC3CCN(CC4CN(c5ccc(S(=O)(=O)C6CN(C(=O)OC(C)(C)C)C6)cc5)C4)CC3)c2n1 | > 10 | 0.19 | 2 | 69.5 (≈ 102 µM) |  |  |  |  | 
CN(C)CCNc1ccc2ncnc(NC3CCN(CC4CN(c5ccc(C#N)cc5)C4)CC3)c2n1 | > 10 | 0.97 | 4.4 |  |  |  |  |  | 
CN(C)C1CCN(c2ccc3ncnc(NC4CCN(CC5CN(c6ccc(C#N)cc6)C5)CC4)c3n2)CC1 | 10.2 | 0.13 | 9.8 |  |  |  |  |  | 
N#Cc1ccc(N2CC(CN3CCC(Nc4ncnc5cnc(OCC(F)(F)F)cc45)CC3)C2)cc1 | > 10 | 0.69 | > 10 |  |  |  |  |  | 
N#Cc1ccc(N2CC(CN3CCC(Nc4ncnc5cnc(NC6CCCC6)cc45)CC3)C2)cc1 | > 10 | 0.06 | > 10 |  |  |  |  |  | 
N#Cc1ccc(N2CC(CN3CCC(Nc4ncnc5ccc(NCCN)nc45)CC3)C2)cc1 | > 10 | 0.68 | 9.8 |  |  |  |  |  | 
CC(C)(C)OC(=O)N1CC(S(=O)(=O)c2ccc(N3CC(CN4CCC(Nc5ncnc6ccc(Cl)nc56)CC4)C3)cc2)C1 | > 10 | 0.12 | 2.3 | < 0.6 |  |  |  |  | 
CC(C)CNc1cc2c(NC3CCN(CC4CN(c5ccc(C#N)cc5)C4)CC3)ncnc2cn1 | > 10 | 1.97 | > 10 |  |  |  |  |  | 
N#Cc1ccc(N2CC(CN3CCC(Nc4ncnc5ccc(Cl)nc45)CC3)C2)cc1 | > 10 | > 10 | > 10 | < 0.4 |  |  |  |  | 
O=S(=O)(c1ccncc1)c1ccc(N2CC(CN3CCC(Nc4ncnc5cnc(Cl)cc45)CC3)C2)cc1 | > 10 | > 10 | 9 |  |  |  |  |  | 
O=S(=O)(c1ccc(N2CC(CN3CCC(Nc4ncnc5ccc(Cl)nc45)CC3)C2)cc1)C1CC1 | > 10 | 0.09 | 6.6 | 15.9 (≈ 31 µM) |  |  |  |  | 
N#Cc1ccc(N2CC(CN3CCC(Nc4ncnc5cnc(NC6CC6)cc45)CC3)C2)cc1 | > 10 | > 10 | > 10 |  |  |  |  |  | 
N#Cc1ccc(N2CC(CN3CCC(Nc4ncnc5cnc(N6CCCC6)cc45)CC3)C2)cc1 | > 10 | > 10 | 6.5 |  |  |  |  |  | 
N#Cc1ccc(N2CC(CN3CCC(Nc4ncnc5cnc(NCC6CC6)cc45)CC3)C2)cc1 | > 10 | > 10 | > 10 |  |  |  |  |  | 
CCN(CC)CCNc1ccc2ncnc(NC3CCN(CC4CN(c5ccc(C#N)cc5)C4)CC3)c2n1 | 9.5 | 0.82 | 4.2 |  |  |  |  |  | 
CN(C)CCOc1ccc2ncnc(NC3CCN(CC4CN(c5ccc(S(=O)(=O)c6ccncc6)cc5)C4)CC3)c2n1 | > 10 | 0.01 | 1.5 | 153 (≈ 254 µM) |  |  |  |  | 

SMILES | IC50 (HL-60) [µM] | IC50 [1] [µM] | IC50 (MV4-11 [2]) [µM] | solubility [3] [µg/mL] | Activity (MV4-11 [4]) | Activity (MV4-11 [5]) | IC50 (MV4-11 [6]) [µM] | Activity (MV4-11 [7]) | IC50 (MV4-11 [8]) [µM]
N#Cc1ccc(N2CC(CN3CCC(Nc4ncnc5ccc(Br)cc45)CC3)C2)cc1 | > 10 | > 10 | > 10 |  |  |  |  |  | 
CN(C)CCN(C)C1CCN(c2cc3c(NC4CCN(CC5CN(c6ccc(C#N)cc6)C5)CC4)ncnc3cn2)CC1 | > 10 | 0.29 | 3.5 |  |  |  |  |  | 
O=S(=O)(c1ccc(N2CC(CN3CCC(Nc4ncnc5ccc(Cl)nc45)CC3)C2)cc1)c1ccccn1 | > 10 | 0.06 | 2.5 |  |  |  |  |  | 
N#Cc1ccc(N2CC(CN3CCC(Nc4ncnc5ccc(CC(F)(F)F)cc45)CC3)C2)cc1 | > 10 | > 10 | > 10 |  |  |  |  |  | 
CC(C)Nc1cc2c(NC3CCN(CC4CN(c5ccc(C#N)cc5)C4)CC3)ncnc2cn1 | > 10 | 0.53 | > 10 |  |  |  |  |  | 
N#Cc1ccc(N2CC(CN3CCC(Nc4ncnc5ccc(N6CCNCC6)nc45)CC3)C2)cc1 | > 10 | 0.18 | 2.2 |  |  |  |  |  | 
N#Cc1ccc(N2CC(CN3CCC(Nc4ncnc5cnc(N6CCCCC6)cc45)CC3)C2)cc1 | > 10 | 0.59 | > 10 |  |  |  |  |  | 
N#Cc1ccc(N2CC(CN3CCC(Nc4ncnc5ccc(OCC(F)(F)F)nc45)CC3)C2)cc1 | > 10 | > 10 | 5.6 |  |  |  |  |  | 
N#Cc1ccc(N2CC(CN3CCC(Nc4ncnc5ccc(NCCO)nc45)CC3)C2)cc1 | > 10 | > 10 | > 10 |  |  |  |  |  | 
CN1CCN(c2ccc3ncnc(NC4CCN(CC5CN(c6ccc(C#N)cc6)C5)CC4)c3n2)CC1 | 10 | 0.07 | 5.6 |  |  |  |  |  | 
COC(CNc1ccc2ncnc(NC3CCN(CC4CN(c5ccc(C#N)cc5)C4)CC3)c2n1)OC | > 10 | > 10 | > 10 |  |  |  |  |  | 
CN(C)C1CCN(c2cc3c(NC4CCN(CC5CN(c6ccc(C#N)cc6)C5)CC4)ncnc3cn2)CC1 | > 10 | > 10 | 3 |  |  |  |  |  | 
CCCc1cc2c(N3CCN(C4=NCC(C)(C)S4)CC3)ncnc2s1 | > 10 |  | 9.2 |  | Active | Active | 8.52 | Dde | 7.62
O=S(=O)(c1ccncc1)c1ccc(N2CC(CN3CCC(Nc4ncnc5ccc(Cl)nc45)CC3)C2)cc1 | 8.8 | 0.03 | 2 | 10 (≈ 18.2 µM) |  |  |  |  | 
CC(C)(C)OC(=O)N1CC(S(=O)(=O)c2ccc(N3CC(CN4CCC(Nc5ncnc6cnc(Cl)cc56)CC4)C3)cc2)C1 | > 10 | > 10 | > 10 |  |  |  |  |  | 
CN1CCN(c2cc3c(NC4CCN(CC5CN(c6ccc(C#N)cc6)C5)CC4)ncnc3cn2)CC1 | > 10 | > 10 | 6.7 |  |  |  |  |  | 
CCNCCNc1ccc2ncnc(NC3CCN(CC4CN(c5ccc(C#N)cc5)C4)CC3)c2n1 | > 10 | > 10 | > 10 |  |  |  |  |  | 
N#Cc1ccc(N2CC(CN3CCC(Nc4ncnc5cnc(Cl)cc45)CC3)C2)cc1 | > 10 | > 10 | > 10 |  |  |  |  |  | 
